Test results as given in article PMC10943695, “Neutrophil elastase as a versatile cleavage enzyme for activation of αvβ3 integrin-targeted small molecule drug conjugates with different payload classes in the tumor microenvironment” (Frontiers in Pharmacology, 2024).
“Also recorded” adds a separate entry of the source. Read-outs that look alike come from different tables or passages of the source. Where a SMILES comes first, the peptide text is derived from it. [ ]: non-standard residue; d: D form. The star is where a group is joined. Dolaproine = CO[C@@H]([C@@H]1CCCN1)[C@@H](C)C(=O)O; Dil = CC[C@H](C)[C@H](NC)[C@@H](CC(=O)O)OC; X1 = C[C@@H](N*)[C@@H](O)c1ccccc1; NMeV = CN[C@H](C(=O)O)C(C)C

How the values were obtained:
[1] = Stability in human plasma; format: in vitro ADME; settings: 37 °C
[2] = Stability in rat plasma; format: in vitro ADME; settings: 37 °C
Procedure: The SMDC compounds 2, 3, 4, 5 and 6 (1 mg) were dissolved in acetonitrile/DMSO (1:1, 0.5 mL). While vortexing, 20 µL of this solution was added to 1 mL rat plasma at 37 °C. The incubation was stopped at respective time intervals by adding acetonitrile/buffer pH 3 (80:20) and the test compounds and formation of degradation products were analyzed by LC and LC/MS.

[3] = Intravenous pharmacokinetics in rat; format: in vivo; settings: for AUC(0-inf) / half-life / clearance / Vd: rat, in vivo, iv; for clearance: read-out: CLp; for Vd: read-out: Vss; for Plasma concentration of released payload: rat plasma after 0.5 mg/kg i.v. of the parent SMDC (4, 5, 6), LLOQ < 0.0005 µM
Procedure: Pharmacokinetic properties of SMDCs and their respective payloads were characterized in rats. Briefly, male Wistar rats (n = 3) were given a 0.5 mg/kg dose of SMDC formulated in plasma/DMSO (99:1) intravenously (i.v.) via tail vein. Blood was collected at pre-dose, 2, 5, 15, 30, 45, 60 min, 2, 4, 7, 24 h post-dose and then processed to plasma. Plasma was frozen at < −20°C until sample analysis. Plasma samples were analyzed for concentrations of SMDCs and their respective released payloads by LC-MS/MS.
Pharmacokinetics of SMDCs and their respective payloads from in vivo studies were determined using mean concentration-time profiles. All pharmacokinetic parameters were calculated by non-compartmental methods as previously described ([Perrier and Gibaldi, 1982]).

[4] = Hydrolytic stability in PBS buffer at pH 7.4; format: physicochemical; settings: PBS pH 7.4, 37 °C, 24 h
Procedure: For hydrolytic stability measurement, compounds 2, 3, 4, 5 and 6 (0.15 mg) were dissolved in acetonitrile/DMSO (4:1, 0.5 mL) and 1 mL of PBS buffer at pH 7.4 was then added. The sample solution was analyzed by HPLC to determine the amount of the test compound and the formation of degradation products over a period of 24 h at 37 °C.

[5] = test system: MX-1 TNBC xenograft; experiment: In vivo efficacy in MX-1 TNBC xenograft model; settings: 20 mg/kg i.v.
Procedure: For in vivo efficacy studies, immunocompromised mice were inoculated subcutaneously with 1x10^6 MX-1 TNBC cells in 50% Matrigel/50% Media on day 0. Treatment was started at a mean tumor volume of 75 mm^3 in the MX-1 model (n = 12/group: Compound 2, 20 mg/kg i. v. in a 2 days on/5 days off and in a once weekly (QW) schedule. VIP236, 20 mg/kg i. v. QW). Tumor and body weight were measured at least twice weekly.

[6] = biological target: T1, human neutrophil elastase (Homo sapiens, UniProt P08246); experiment: Human neutrophil elastase cleavability assay; format: biochemical; settings: 5 µM SMDC, 20, 40, 60 nM NE, 1 h, 37°C
T1 sequence (P08246 30-267): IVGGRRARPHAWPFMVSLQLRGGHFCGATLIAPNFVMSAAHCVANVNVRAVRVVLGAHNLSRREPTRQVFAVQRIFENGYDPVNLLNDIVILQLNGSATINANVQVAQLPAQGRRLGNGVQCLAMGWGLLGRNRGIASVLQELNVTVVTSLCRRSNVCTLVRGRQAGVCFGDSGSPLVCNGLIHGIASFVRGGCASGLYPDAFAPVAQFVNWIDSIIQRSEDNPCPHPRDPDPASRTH
Procedure: For the NE cleavability assay, the SMDC test compound was added to buffer (150 mM NaCl, 10 mM CaCl2, 0.05% BSA) to a final concentration of 5 µM (0.5% DMSO). The reaction was started by adding different concentrations of human NE (0, 20, 40, 60 nM) to the reaction vials. After incubation for 1 h at 37°C, the enzymatic reaction was stopped by precipitation in 50% ACN. Subsequently, the samples were subjected to HPLC-MS analysis to determine the concentration of test compound and of its metabolite.

[7] = Caco-2 cell permeability flux assay; format: in vitro ADME; settings: human, 37 °C, mean of at least two assays
Procedure: The cell permeability of the payloads released by the SMDCs 5 and 6, namely, compounds 10 and 11 were investigated with an in vitro flux assay using Caco-2 cells ([Troutman and Thakker, 2003]). The compounds were dissolved in HEPES buffer and applied (in triplicates) to the cells either on the apical (A) or basolateral (B) side of the Caco-2 monolayer at a final concentration of 2 μM. Before and after incubation for 2 h at 37 °C, samples were taken from both compartments and analyzed by LC-MS/MS. The apparent permeability coefficient (Papp) was calculated for both the apical to basolateral (A → B) and the basolateral to apical (B → A) direction as described by Schwab et al. ([Schwab et al., 2003]).

[8] = test system: HT-29 (human CRC) cells; experiment: In vitro cytotoxicity, MTT assay, in absence or presence of neutrophil elastase; format: cell-based; settings: Homo sapiens, HT-29, 72 h exposure
Procedure: (§1) 786-O (human RCC), HT-29 (human CRC), NCI-H292 (human NSCLC), NCI-H69 (human SCLC), MX-1 (human TNBC), and SUM149PT (human IBC) cells were acquired from ATCC and cultured according to the provider’s instructions.
(§2) The in vitro cytotoxicity of the SMDCs in comparison to the respective payloads was tested in a panel of cancer cell lines after a 72 h continuous exposure in presence or absence of 20 nM neutrophil elastase using MTT assays (ATCC). IC50 values were determined as the concentration of compound required for 50% inhibition of cell viability.

[9] = test system: SUM149PT (human IBC) cells; experiment: as above; format: cell-based; settings: Homo sapiens, SUM149PT, 72 h exposure
Procedure: as §1, §2

[10] = test system: 786-O (human RCC) cells; experiment: as above; format: cell-based; settings: Homo sapiens, 786-0, 72 h exposure
Procedure: as §1, §2

[11] = test system: NCI-H292 (human NSCLC) cells; experiment: as above; format: cell-based; settings: Homo sapiens, NCI-H292, 72 h exposure
Procedure: as §1, §2

[12] = male Wistar rats, 0.5 mg/kg SMDC i.v., plasma
[13] = with 20 nM neutrophil elastase, read-out: IC50 HT29 + neutrophil elastase
[14] = without neutrophil elastase, read-out: IC50 HT29
[15] = with 20 nM neutrophil elastase, read-out: IC50 SUM149 PT + neutrophil elastase
[16] = without neutrophil elastase, read-out: IC50 SUM149PT
[17] = with 20 nM neutrophil elastase, read-out: IC50 786–0 + neutrophil elastase
[18] = without neutrophil elastase, read-out: IC50 786–0
[19] = with 20 nM neutrophil elastase, read-out: IC50 NCI-H292 + neutrophil elastase
[20] = without neutrophil elastase, read-out: IC50 NCI-H292

SMILES | Stability in human plasma [1] | Stability in rat plasma [2] | AUC(0-inf) [3, 12] [µM·h] | half-life [3, 12] [h] | clearance [3, 12] [mL/min/kg] | Vd [3, 12] [L/kg] | Stability in buffer pH 7.4 [4] | Cleavage by human NE [6] | Papp A→B at 2 h, 2 μM [7] [×10⁻⁶ cm/s] | Papp B→A at 2 h, 2 μM [7] [×10⁻⁶ cm/s] | efflux ratio at 2 h, 2 μM [7] | Plasma concentration of released payload [3] | IC50 [8, 13] [nM] | IC50 [8, 14] [nM] | IC50 [9, 15] [nM] | IC50 [9, 16] [nM] | IC50 [10, 17] [nM] | IC50 [10, 18] [nM] | IC50 [11, 19] [nM] | IC50 [11, 20] [nM] | also measured
CCCNC(=O)Nc1cccc(S(=O)(=O)Nc2cccc([C@@H](CC(=O)O)NC(=O)Nc3ccc(NC(=O)NCCN(C)CCN(C)CCN(C)CC(=O)N[C@@H](CC(N)=O)C(=O)N4CCC[C@H]4C(=O)N[C@H](C(=O)O[C@]4(CC)C(=O)OCc5c4cc4n(c5=O)Cc5c-4nc4ccccc4c5CC)C(C)C)cc3)c2)c1 [Compound 2] | Very small fractions of a degradation product; also recorded: highly stable | highly stable | 2.52 ± 0.61 | 8.31 ± 5.49 | 2.33 ± 0.44 | 0.627 ± 0.344 | Very small fractions of a degradation product; also recorded: highly stable | essentially completely cleaved | – | – | – | – | – | – | – | – | – | – | – | – | payload/parent AUC ratio ([3]; male Wistar rats, 0.5 mg/kg SMDC i.v., plasma, molar basis): 0.0105; Tumor growth MX-1 ([5]; 2 days on/5 days off): significant tumor regression; also recorded: complete tumor regression; Body weight loss ([5]; 2 days on/5 days off, MX-1 model): no significant body weight loss; Tumor growth MX-1 ([5]; once weekly): tumor stasis; Body weight changes ([5]; MX-1 model): minor
CCCNC(=O)Nc1cccc(S(=O)(=O)Nc2cccc([C@@H](CC(=O)O)NC(=O)Nc3ccc(NC(=O)NCCOCCOCCOCCC(=O)N[C@@H](CC(N)=O)C(=O)N4CCC[C@H]4C(=O)N[C@H](C(=O)NCCCN(C(=O)CO)[C@@H](c4cc(-c5cc(F)ccc5F)cn4Cc4ccccc4)C(C)(C)C)C(C)C)cc3)c2)c1 [Compound 5] | highly stable | highly stable | 1.09 ± 0.49 | 4.88 ± 4.37 | 5.5 ± 2.35 | 0.6 ± 0.515 | highly stable | very slow | – | – | – | – | – | – | – | – | – | – | – | – | –
CC(C)(C)[C@H](c1cc(-c2cc(F)ccc2F)cn1Cc1ccccc1)N(CCCN)C(=O)CO [Compound 10, N-(3-aminopropyl)-N-{(1R)-1-[1-benzyl-4-(2,5-difluorophenyl)-1H-pyrrol-2-yl]-2,2-dimethylpropyl}-2-hydroxyacetamide] | – | – | – | – | – | – | – | – | 0.38 | 18 | 129 | largely below the lower limit of quantitation | 0.41 | 0.41 | 0.17 | 0.33 | 2.5 | 2.5 | 0.27 | 0.46 | –
CCc1c2c(nc3ccccc13)-c1cc3c(c(=O)n1C2)COC(=O)[C@]3(O)CC [Compound 7, 7-ethyl camptothecin, reference compound] | – | – | – | – | – | – | – | – | – | – | – | – | 19 | 22 | 4.2 | 3.8 | 3.2 | 3.7 | 4.6 | 3.8 | –
CNC(=O)[C@@H](N)CCN(C(=O)CO)[C@@H](c1cc(-c2cc(F)ccc2F)cn1Cc1ccccc1)C(C)(C)C [Compound 11, (2S)-2-amino-4-[{(1R)-1-[1-benzyl-4-(2,5-difluorophenyl)-1H-pyrrol-2-yl]-2,2-dimethylpropyl}(glycoloyl)amino]-N-methylbutanamide] | – | – | – | – | – | – | – | – | 3.48 | 30.3 | 8.7 | largely below the lower limit of quantitation | 1.4 | 1.2 | 0.53 | 0.31 | 6 | 6 | 0.97 | 1.8 | –
CC[C@H](C)[C@@H]([C@@H](CC(=O)N1CCC[C@H]1[C@H](OC)[C@@H](C)C(=O)N[C@H](C)[C@@H](O)c1ccccc1)OC)N(C)C(=O)[C@@H](NC(=O)[C@@H](NC)C(C)C)C(C)C [Compound 9, N-methyl-L-valyl-N-[(3R,4S,5S)-1-{(2S)-2-[(1R,2R)-3-{[(1S,2R)-1-hydroxy-1-phenylpropan-2-yl]amino}-1-methoxy-2-methyl-3-oxopropyl]pyrrolidin-1-yl}-3-methoxy-5-methyl-1-oxoheptan-4-yl]-N-methyl-L-valinamide, reference compound] (H-[NMeV]V[Dil][Dolaproine]-X1) | – | – | – | – | – | – | – | – | – | – | – | largely below the lower limit of quantitation | 0.55 | 0.58 | 0.14 | 0.18 | 4.9 | 5.9 | 0.36 | 0.4 | –
